Results taken from US12391737B2, “Soluble NPY2 receptor agonists” (Boehringer Ingelheim International GmbH, priority 2020, dated 2025).

Assays:
[1] = target: T1, Human Neuropeptide Y2 Receptor (Homo sapiens, UniProt P49146); assay: Radioligand binding competition assay (RLB); settings: Table 3, 125I-PYY(1-36) competition; read-out: Ki
T1 construct: purchased CHEMICON HTS066M
T1 sequence (P49146 1-381): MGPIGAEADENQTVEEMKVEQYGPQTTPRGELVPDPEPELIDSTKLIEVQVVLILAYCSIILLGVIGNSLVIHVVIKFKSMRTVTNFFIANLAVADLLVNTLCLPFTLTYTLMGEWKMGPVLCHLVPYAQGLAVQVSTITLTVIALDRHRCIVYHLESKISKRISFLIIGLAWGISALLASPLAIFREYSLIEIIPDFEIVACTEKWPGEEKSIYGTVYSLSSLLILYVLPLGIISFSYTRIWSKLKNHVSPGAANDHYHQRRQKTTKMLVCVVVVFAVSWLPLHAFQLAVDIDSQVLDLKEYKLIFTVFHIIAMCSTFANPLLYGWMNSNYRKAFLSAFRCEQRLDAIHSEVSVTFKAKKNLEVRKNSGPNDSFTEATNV
Description: The filtration RLB assay was carried out in 96-well plates in a final volume of 100 μl per well. Freeze-dried test peptides were dissolved in 100% dimethyl sulfoxide (DMSO) to stock solutions of 1 mM and serial dilutions were performed in assay buffer (50 mM HEPES, 5 mM MgCl2, 1 mM CaCl2, pH 7.4) containing 0.2% ovalbumin. […] Next, 80 μL membranes (HTS066M, ChemiSCREEN™ Human Neuropeptide Y2 Receptor Membrane Preparation, CHEMICON) were added to each well to give a final protein concentration of 0.5 μg/well. The plates were sealed and incubated at room temperature for 2 hours in a plate shaker set at 400 rpm. The incubation was stopped by vacuum filtration onto 0.5% polyethylene amine (PE) presoaked GF/C filters using a 96-well FilterMate™ harvester (Perkin Elmer) followed by four washes with 300 μl/well ice-cold wash buffer (50 mM HEPES, 500 mM NaCl, pH7.4). Filter plates were then dried for 60 min at room temperature and the bottom of the plates was sealed with backing tape UniFilter-96. Finally, 50 μl/well scintillation counter cocktail (Microscint20, Packard) was added and the radioactivity was counted in the Packard TopCount NXT scintillation counter. IC50 values (the half maximal inhibitory concentration of the agonist) were calculated by nonlinear regression analysis of sigmoidal dose-response curves.

[2] = Solubility determination; settings: for Sol6: pH 6; for Sol7: pH 7
Description: Peptides (as TFA salts) were weighed out in a filter unit (Mini-UniPrep Syringeless Filter 0.45 μm, Whatman), and 0.1 M sodium diphosphate buffer at pH 6.4 or 7.0 was added to achieve 10 mg/ml final concentration. The peptide was dissolved by shaking the filter unit horizontally at 600 rpm for 2 hours at room temperature. The sample was filtered, to remove any insoluble particles and diluted to 1 mg/ml in 50% acetonitrile. The control was prepared by weighing out the corresponding peptide and dissolving it in 50% acetonitrile to final concentration of 1 mg/ml. Both the control and sample were analysed with reversed phase chromatography. The area under the peak of the sample was compared to the control and the solubility was calculated based on that ratio.
The pH was measured and recorded for each sample.
System: UltiMate 3000 UPLC, ThermoFisher
Mobile phase A: 5% acetonitrile, 95% water, 0.03% trifluoracetic acid.
Mobile phase B: 95% acetonitrile, 5% water, 0.03% trifluoracetic acid.
Gradient: 0-100% mobile phase B (2 mins.)
Column temperature: 50° C.

Compound | Ki [1] [nM] | Sol6 [2] [mg/mL] | Sol7 [2] [mg/mL]
CC[C@H](C)[C@H](NC(=O)[C@H](Cc1ccc(O)cc1)NC(=O)[C@H](Cc1ccc(O)cc1)NC(=O)[C@H](CCCNC(=N)N)NC(=O)[C@H](CCC(N)=O)NC(=O)[C@H](CC(C)C)NC(=O)[C@H](CCC(=O)O)NC(=O)[C@H](CCC(=O)O)NC(=O)[C@@H]1CCCN1C(=O)[C@H](CCC(=O)O)NC(=O)[C@H](C)NC(=O)[C@H](CC(=O)O)NC(=O)[C@H](C)NC(=O)[C@H](CCC(=O)O)NC(=O)[C@@H]1CCCN1C(=O)[C@H](CCCCNC(=O)CCCCCNC(=O)CC[C@H](NC(=O)CCCCCCCCCCCCCCCCC(=O)O)C(=O)O)NC(=O)[C@H](CCC(=O)O)NC(=O)[C@@H]1CCCN1C(=O)[C@H](C)NC(=O)CC(C)C)C(=O)N[C@@H](C)C(=O)N[C@@H](CC(C)C)C(=O)N[C@@H](CCCNC(=N)N)C(=O)N[C@@H](Cc1c[nH]cn1)C(=O)N[C@@H](Cc1ccc(O)cc1)C(=O)N[C@@H](Cc1ccc(O)cc1)C(=O)N[C@@H](CC(N)=O)C(=O)N[C@@H](Cc1c[nH]c2ccccc12)C(=O)N[C@@H](CC(C)C)C(=O)N[C@H](C(=O)N[C@@H](CCCNC(=N)N)C(=O)N[C@@H](CCC(N)=O)C(=O)N[C@@H](CCCNC(=N)N)C(=O)N[C@@H](Cc1ccc(O)cc1)C(N)=O)[C@@H](C)O [Compound 1, N{alpha-4}-(3-methylbutanoyl)-N{epsilon-7}-(6-[(4S)-4-carboxy-4-(17-carboxyheptadecanamido)butanamido]hexanoyl)[4A,7K,9E,10A,13E,18Q,22I,23A,28Y,30W,31L]-hPYY(4-36)] | 2.05 | 10.0 | 7.6
CC(C)CC(=O)N[C@@H](C)C(=O)N1CCC[C@H]1C(=O)N[C@@H](C)C(=O)N[C@@H](CCCCNC(=O)CCCCCNC(=O)CC[C@H](NC(=O)CCCCCCCCCCCCCCCCC(=O)O)C(=O)O)C(=O)N1CCC[C@H]1C(=O)N[C@@H](CCC(=O)O)C(=O)N[C@@H](C)C(=O)N[C@@H](CC(=O)O)C(=O)N[C@@H](C)C(=O)N[C@@H](CCC(=O)O)C(=O)N1CCC[C@H]1C(=O)N[C@@H](CCC(=O)O)C(=O)N[C@@H](CCC(=O)O)C(=O)N[C@@H](CC(C)C)C(=O)N[C@@H](CCC(N)=O)C(=O)N[C@@H](CCCNC(=N)N)C(=O)N[C@@H](Cc1ccc(O)cc1)C(=O)N[C@@H](Cc1ccc(O)cc1)C(=O)N[C@H](C(=O)N[C@@H](C)C(=O)N[C@@H](CC(C)C)C(=O)N[C@@H](CCCNC(=N)N)C(=O)N[C@@H](Cc1c[nH]cn1)C(=O)N[C@@H](Cc1ccc(O)cc1)C(=O)N[C@@H](Cc1ccc(O)cc1)C(=O)N[C@@H](CC(N)=O)C(=O)N[C@@H](Cc1c[nH]c2ccccc12)C(=O)N[C@@H](CC(C)C)C(=O)N[C@H](C(=O)N[C@@H](CCCNC(=N)N)C(=O)N[C@@H](CCC(N)=O)C(=O)N[C@@H](CCCNC(=N)N)C(=O)N[C@@H](Cc1ccc(O)cc1)C(N)=O)[C@@H](C)O)C(C)C [Compound 3, N{alpha-4}-(3-methylbutanoyl)-N{epsilon-7}-(6-[(4S)-4-carboxy-4-(17-carboxyheptadecanamido)butanamido]hexanoyl)[4A,6A,7K,9E,10A,13E,18Q,22V,23A,28Y,30W,31L]-hPYY(4-36)] | 1.57 | 10.0 | 10.0
